Results: PubChem BioAssay (NCI)
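Grown in 96-well plates, cells were treated for 48 hours with each compound at five concentrations. Insufficient inhibition: endpoint recorded as highest concentration tested. Abbreviation: GI50, concentration required for 50% inhibition of growth. TGI: total growth inhibition.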

Legend:
Experiment in all cases: NCI tumour cell line growth inhibition, 48 h
UACC-62 melanoma = test system: UACC-62 melanoma
K-562 leukemia = test system: K-562 leukemia
SF-295 CNS = test system: SF-295 CNS
CCRF-CEM leukemia = test system: CCRF-CEM leukemia
HCT-116 colon = test system: HCT-116 colon
A549 NSCLC = test system: A549 NSCLC
OVCAR-5 ovarian = test system: OVCAR-5 ovarian
SK-MEL-28 melanoma = test system: SK-MEL-28 melanoma
BT-549 breast = test system: BT-549 breast
NCI/ADR-RES ovarian = test system: NCI/ADR-RES ovarian

SMILES | GI50 (UACC-62 melanoma) | TGI (UACC-62 melanoma) | GI50 (K-562 leukemia) | TGI (K-562 leukemia) | GI50 (SF-295 CNS) | TGI (SF-295 CNS) | GI50 (CCRF-CEM leukemia) | TGI (CCRF-CEM leukemia) | GI50 (HCT-116 colon) | TGI (HCT-116 colon) | GI50 (A549 NSCLC) | TGI (A549 NSCLC) | GI50 (OVCAR-5 ovarian) | TGI (OVCAR-5 ovarian) | GI50 (SK-MEL-28 melanoma) | TGI (SK-MEL-28 melanoma) | GI50 (BT-549 breast) | TGI (BT-549 breast) | GI50 (NCI/ADR-RES ovarian) | TGI (NCI/ADR-RES ovarian)
COc1ccc(NC(=O)n2nc(N)c3ccccc32)cc1OC | 52.3 µM | > 100 µM | 41.2 µM | > 100 µM | 37.6 µM | > 100 µM | 36.7 µM | > 100 µM | 43.5 µM | > 100 µM | 45.8 µM | > 100 µM | 45.5 µM | > 100 µM | > 100 µM | > 100 µM | 25.9 µM | > 100 µM | 37.6 µM | > 100 µM
O=[N+]([O-])c1ccc(-c2nc(-c3ccccc3)c(-c3ccccc3)n2-c2ccccc2)cc1 | 2.18 µM | 8.53 µM | 3.24 µM | 95.9 µM | 2.68 µM | 8.25 µM | 2.83 µM | > 23.8 µM | 3.47 µM | 14 µM | 3.01 µM | 12.6 µM | 4.7 µM | 28.7 µM | 2.99 µM | 9.97 µM | 2.16 µM | 6.53 µM | 2.68 µM | 7.88 µM
CCOc1ccc([C@@H]2[C@@H](Oc3ccccc3)C(=O)N2c2cc(OC)c(OC)c(OC)c2)cc1 | 0.0427 µM | > 100 µM | 0.0367 µM | > 100 µM | 0.0534 µM | > 100 µM | 0.048 µM | > 100 µM | 0.0437 µM | 3.88 µM | 0.215 µM | > 100 µM | 0.47 µM | > 100 µM | 1.89 µM | > 100 µM | 0.0681 µM | > 100 µM | 0.06 µM | > 100 µM
CCC(C)n1cc(C)c2c(C(=O)NCc3c(C)cc(C)[nH]c3=O)cc(Br)cc21 (centres undefined) | 29.4 µM | > 100 µM | 34.6 µM | > 100 µM | 29.9 µM | > 100 µM | 30.8 µM | > 100 µM | 48 µM | > 100 µM | 39.7 µM | > 100 µM | > 100 µM | > 100 µM | 72.5 µM | > 100 µM | 41.8 µM | > 100 µM | 33.8 µM | > 100 µM
COc1cccc(C2C(C#N)=C(N)Oc3cc(N)ccc32)c1 (centres undefined) | 0.368 µM | > 100 µM | 0.396 µM | > 100 µM | 0.376 µM | > 100 µM | 0.32 µM |  | 0.383 µM | > 72.2 µM | 0.572 µM | > 100 µM | 1.43 µM | > 100 µM | 0.663 µM | > 100 µM | 0.351 µM | 54.3 µM | 0.346 µM | 4.38 µM
Cc1cc2cc3cc(C)c(N(C)C)cc3nc2cc1N(C)C | 2.97 µM | 17.2 µM | 4.79 µM | > 100 µM | 1.81 µM | 8.52 µM | 8.99 µM | > 100 µM | 2.12 µM | > 100 µM | 3 µM | > 100 µM | 8.37 µM | > 100 µM | 2.8 µM | 9.55 µM | 4.26 µM | 15.6 µM | 31.7 µM | > 100 µM
COc1ccc(C(=O)c2ccc(OC)c(OC)c2OC)cc1 | 1.47 µM | > 100 µM | 0.351 µM | > 100 µM | 0.956 µM | 5.07 µM | 1.46 µM | > 100 µM | 2.19 µM | > 100 µM | 2.01 µM | > 100 µM | 8.52 µM | > 100 µM | 4.51 µM | > 100 µM | 6.16 µM | > 100 µM | 0.693 µM | 7.8 µM
CC(=O)c1ccc(NC(=O)CSc2nnc(-c3cc(-c4ccc(C)cc4)nc4ccccc34)o2)cc1 | 24.2 µM | > 100 µM | 3.15 µM | > 100 µM | 2.18 µM | 6.08 µM | 4.03 µM | > 100 µM | 2.25 µM | 6.1 µM | 3.01 µM | > 100 µM | 6.01 µM | > 100 µM | > 100 µM | > 100 µM | 2.44 µM | 7.89 µM | 3.14 µM | > 100 µM
